Test results from patent publication US20260083126A1, “ANTIMICROBIAL COMPOSITIONS” (AHV International B.V., priority 2022, published 2026).
≈ marks a conversion by molar mass, not a printed value. Entries after “also recorded” stand apart in the source; their conditions may differ.

Assays:
[1] = system: Micrococcus luteus ATCC 4698; experiment: MIC assay; format: cell-based; details: Example 2a, n = 3, ATCC 4698; for MIC50 / MIC90: Micrococcus luteus, ATCC4698
Protocol: The exact weighed amount was noted and the volume of solvent to reach a 80 mM dilution calculated. Half of the volume was added first, by adding Tween 80 and let stand for 5 minutes. In a second step, the other half of the volume DMSO was added and resuspended to help the dilution process. The closed tube was inverted 5-10 times and then vortexed very thoroughly for at least 30 seconds. If after this procedure crystals were still visible, the tube was placed in a shaker at 37° C. at 150 rpm for at least 30 minutes (it is indicated if the dissolution period was longer than 2 h). […] In case of Bis(4-Chlorophenyl) thiosulfonate, a lower concentrated stock solution of 2 mM needed to be prepared. For that, the required amount of compound was weighed in and 2% v/v Tween80 and 2% v/v DMSO of the end volume of the stock solution was added to the substance. This mix was heated in a water bath set to 40° C. and occasionally shaken. When the whole amount of the substance reached dissolution, the volume was filled up with growth medium until the end volume. This 2 mM stock solution of Bis(4-Chlorophenyl) thiosulfonate was used in the MIC plate and diluted two-fold, resulting in a testing range of Bis(4-Chlorophenyl) thiosulfonate from 1 mM to 0.002 mM.
The microorganisms as indicated in Table 4 were used to inoculate a tryptic soy agar (TSA) plate and incubated overnight at 37° C. After incubation 3-5 well-isolated colonies with the same morphology were selected from the TSA plate and resuspended in 2 mL 0.9% saline solution with 3-6 glass beads and vortexed. The optical density at 600 nm (OD600) of the bacterial suspension was measured with a spectrophotometer (Evolution™ 201/220 UV-Visible Spectrophotometer, Thermo Fisher Scientific) and diluted to an OD600 of 0.0008, which resembles 10^6 CFU/mL.
The MIC assay was performed in a flat-bottom 96-microtiter plate. 50 μL of MHB-II was added into columns 2-11, and 100 μL to column 12 for sterility control. 100 μL of the 8 mM test compound solution (method 1) was added to column 1. A two-fold dilution series of the solution in MHB-II was achieved by resuspending 50 μL of the 8 mM solution from column 1 to column 2. This step was repeated until column 10. The respective concentration of Tween 80 and DMSO in column 1 was 2.5%, which is two-fold diluted throughout the plate. 50 μL of the bacterial suspension was added to column 1-11. The microtiter plates were sealed with adhesive polyethylene film for sealing microplates (Diversified Biotech) and incubated for 24 h at 37° C. After incubation the OD was measured at 600 nm with the Varioskan (Thermo Fisher Scientific). The minimal concentration which causes reduction of final OD600 of the bacterial culture by 50% (MIC50) and by 90% (MIC90) was calculated after normalization of the obtained OD values to the growth control in column 11. This assay was repeated three times in three independent experiments.

[2] = system: Caco-2 cell line; experiment: MTT cytotoxicity test; format: cell-based; details: 24 h, 7.8 μM to 1 mM, emulsified with Tween-80/DMSO
Protocol: Scope. As standard tests cytotoxicity is measured on Caco-2 and HepG2 cell lines. Cytotoxicity of mentioned cell lines was determined by measuring the amount of converted MTT (3-(4,5-dimethylthiazol-2-yl)-2,5-diphenyltetrazolium bromide) by a mitochondrial dehydrogenase after exposure of various concentrations of the antimicrobial compounds. In living cells the dehydrogenase converts the soluble MTT into water insoluble purple formazan crystals that can not pass the cell membrane. The higher the metabolic activity of the cell, the more purple crystals are formed, the lower the cytotoxicity of the antimicrobial compound. Experimental design. The Caco-2 cell line as colorectal adenocarcinoma cells and HepG2 (derived from human liver) were used for the current experiments and were obtained from the ATCC. The intestinal Caco-2 cell line was cultured in 75-cm^2 culture flasks. Minimum Essential Medium (MEM) (Catalog Number(s) 31095029, ThermoFischer Scientific), supplemented with 10% (v/v) inactivated fetal calf serum (FCS) (Gibco), 1% (v/v) nonessential amino acids (Gibco), 1% sodium pyruvate (Gibco) and penicillin (100 U/ml)/streptomycin (100 μg/ml.) was utilized as medium for the growing cells. The cells were preserved in an incubator to provide them with the optimum moisture and temperature (humidified atmosphere of 95% air and 5% CO2 at 37° C. for 72 hours). The Caco-2 cells were seeded in flat bottom 96-well plates for performing the experiments. The cells were grown on flat bottom 96-well plates to the appropriate density to run the experiments. The cells were exposed to increasing concentrations of emulsified test compound (8 concentration, ranging from 7.8 μM to 1 mM) in standard culture medium (Catalogue 31331028, ThemoFischer Scientific) for each cell line. It should be noted that all the experiments were conducted in FBS (Catalog A3840101, ThermoFischer Scientific) and antibiotic free medium. The concentration of Tween-80 and DMSO that is present in the assay to emulsify the antimicrobial compound was in the range from 0,007% to 1%. The cells were incubated for 24 h with emulsified test compound and the assay was performed based on the standard protocol. By the end of the experiment the medium (cell supernatants) was removed and the lysis buffer (0.04 M hydrochloric acid, in propan-2-ol) was added to each well to solubilize the purple formazan crystals. As the final step, the absorbance was recorded by a multi-well reader at 595 nm. […] The results from all experiments were expressed as mean #standard error of the mean (SEM) conducted in triplicate (three wells/condition) of three independent experiments. Differences between results were statistically evaluated using One-way ANOVA with Bonferroni post-hoc test.

| Structure (SMILES) | MIC50 Micrococcus luteus (+) [1] | MIC90 Micrococcus luteus (+) [1] | MIC50 [1] | MIC90 [1] | cytotoxic effect on Caco-2 cells (MTT) [2] |
| --- | --- | --- | --- | --- | --- |
| O=S(=O)(Sc1ccc(F)cc1)c1ccc(F)cc1 [Bis (4-fluorophenyl) thiosulfonate, Bis(4-fluorophenyl) thiosulfonate] | 1500 µM | 2000 µM |  |  |  |
| Fc1ccc(SSc2ccc(F)cc2)cc1 [Bis (4-fluorophenyl) disulfide, Bis(4-fluorophenyl) disulfide] |  |  | 750 µM (≈ 191 µg/mL) | 2000 µM (≈ 509 µg/mL) | cytotoxic effects |
| CC(C)SS(=O)(=O)C(C)C [Di-isopropyl thiosulfonate] |  |  |  |  | cytotoxic effects; also recorded: cytotoxicity is lowest |
| O=S(=O)(Sc1ccc(Cl)cc1)c1ccc(Cl)cc1 [Bis (4-chlorophenyl) thiosulfonate, Bis(4-chlorophenyl) thiosulfonate] | 210 µM | 750 µM |  |  | cytotoxic effects |
| Clc1ccc(SSc2ccc(Cl)cc2)cc1 [Bis (4-chlorophenyl) disulfide, Bis(4-chlorophenyl) disulfide] |  |  | 50 µM (≈ 14.4 µg/mL) | 250 µM (≈ 71.8 µg/mL) | cytotoxic effects |
| [O-][S+](Sc1ccc(F)cc1)c1ccc(F)cc1 (centres unmarked) [Bis (4-fluorophenyl) thiosulfinate, Bis(4-fluorophenyl) thiosulfinate] | 2000 µM (≈ 541 µg/mL) | 3330 µM (≈ 900 µg/mL) |  |  |  |
